The assay concerns albino rats. Description: Rat hair growth trial (plucked hair at end of G-2 anagen after topical application). It is filed as in vivo. The note with it: for LENGTH (length of hair) / WT/AREA (weight of hair per unit area of skin): G-2 anagen, topical twice daily, 6 rats per group, TBC 5% by weight in vanishing cream base, minoxidil 2% by weight in 65% v/v aqueous ethanol. On the procedure: The effect of esters of citric acid on hair growth was assessed using albino rats as an animal model. The rats were chosen from as few litters as possible and were each approximately 27-30 days of age at the start of the trial. Each rat was housed individually to prevent licking.
In each comparison, 6 rats were used in each group and hair growth was assessed as follows: A small patch of normal skin (3cm x 3cm) on the upper back of each rat was selected and hairs were plucked from this area at the start of the trial (G-1 telogen). Test materials or control in a vanishing cream base or an alcoholic lotion, as appropriate, were then applied twice daily until the end of the next anagen, i.e. after a further 20 days from the start of trial (G-2 anagen). Each application of lotion amounted to about 50 mg.
At the end of G2-anagen, hair was plucked again from the same dorsal area, and this was used for measurement of: • i) weight of hair per unit area of skin, • ii) length of hair, and • iii) diameter of hair measured microscopically.
This procedure was employed to compare the effect of topical application to the rat model of a known hair growth promoter, namely minoxidil and a test material as used in accordance with the invention, namely tri-n-butyl citrate.
In this experiment minoxidil was employed at a concentration of 2% by weight in 65% v/v aqueous ethanol and tri-n-butyl citrate was employed at a concentration of 5% by weight in a vanishing cream base.

Setting [1] is: end of G-2 anagen, versus control (vanishing cream base).

Each structure is given as a SMILES string. Counter-ions that a name gives are not always drawn.

Take `Nc1cc(N2CCCCC2)nc(N)[n+]1[O-]` [Minoxidil, reference compound]: the “LENGTH (length of hair)” value was 8.85 ± 0.42 mm and the “WT/AREA (weight of hair per unit area of skin)” value worked out at 16.27 ± 0.97 mg/cm2.

In the case of `CCCCOC(=O)CC(O)(CC(=O)OCCCC)C(=O)OCCCC` [TBC, tri-n-butyl citrate], the “LENGTH (length of hair)” value came out at 10.74 ± 1.16 mm and the “WT/AREA (weight of hair per unit area of skin)” value is given as 17.24 ± 0.97 mg/cm2. Besides, under setting [1], the “hair diameter, comparison in words” value is listed as “similar”; the “length of hair, comparison in words” value is “marked increase over both control and minoxidil”; the “weight of plucked hair per unit area, comparison in words” value is listed as “marked increase over the control”.

For the origin of these results see EP0517371B1, “Hair growth composition containing citric acid esters” (UNILEVER PLC, priority 1991, dated 1992).
